Laboratory results published in PubChem BioAssay (NCI).
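Growth conditions: 96-well plates. Treatment: test compound, 48 hours, 5 concentrations. Analysis: linear interpolation between bracketing concentrations; unreached endpoints set to highest concentration. Here, GI50 denotes the concentration required for 50% inhibition of growth. TGI denotes the concentration required for complete inhibition of growth.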

Key:
Assay in all cases: growth of human tumour cells (NCI), 48 h
IGROV1 ovarian = test system: IGROV1 ovarian
MCF7 breast = test system: MCF7 breast
OVCAR-4 ovarian = test system: OVCAR-4 ovarian
TK-10 renal = test system: TK-10 renal
DLD-1 colon = test system: DLD-1 colon
DMS 114 small cell lung = test system: DMS 114 small cell lung
DMS 273 small cell lung = test system: DMS 273 small cell lung
KM20L2 colon = test system: KM20L2 colon
LXFL 529 NSCLC = test system: LXFL 529 NSCLC
M19-MEL melanoma = test system: M19-MEL melanoma
XF 498 CNS = test system: XF 498 CNS

SMILES	TGI (IGROV1 ovarian) [µM]	TGI (MCF7 breast) [µM]	TGI (OVCAR-4 ovarian) [µM]	TGI (TK-10 renal) [µM]	also measured
COC(=O)C1(C#N)C(C)(C)N=C(c2ccccc2)C12CCCCC2 (stereo not given)	> 100	> 100	> 100	> 100	–
Cc1ccc(S(=O)(=O)Oc2nc3ccccc3nc2OS(=O)(=O)c2ccc(C)cc2)cc1	> 100	> 100	–	> 100	–
CCOC(=O)C1(C(=O)OCC)OC(C)=NC1(C(=O)OC)C(=O)OC	> 100	> 100	> 100	> 100	–
COc1cc(NCCC2CCCCN2)c2ncccc2c1 (stereo not given)	> 100	1.96	> 100	> 100	–
NCCCC[C@H](N)C(=O)Nc1ccc(-c2nc3ccccc3s2)cc1	31.5	–	> 100	> 100	–
C=C(CCC/C(C)=C/C=C/[C@@H](C)CCCc1ccoc1)C[C@@H]1OC(=O)[C@H](C)[C@@H]1O	21.7	25.2	20.1	25.8	–
CCOC(=O)c1cc2/c(=C\c3ccc(N(C)C)cc3)c3ccccc3n2[n+]1C	–	27.9	13.7	21.9	–
CS(=O)(=O)c1ccc(N=C/C=C/Nc2ccc(S(C)(=O)=O)cc2)cc1	> 100	> 100	> 100	> 100	–
COC1CC(COCc2ccccc2)CC(OC)O1 (stereo not given)	–	> 100	–	> 100	–
COC(=O)c1cc(C(=CCC[C@H]2CC[C@@]3(C)C(CCC4C3CC[C@@]3(C)C4CC[C@@H]3C(C)CCCC(C)C)C2)c2cc(Cl)c(O)c(C(=O)OC)c2)cc(Cl)c1O (stereo not given in full)	> 10	> 10	> 10	> 10	–
COc1ccc(CCCNC(=O)c2cc(OC)c(OC)cc2CCO)cc1OC	> 100	> 100	> 100	> 100	–
COc1ccccc1-c1cc(=O)c2cc3c(cc2[nH]1)OCO3	> 100	–	92	> 100	TGI (DLD-1 colon): > 100 µM; GI50 (DMS 114 small cell lung): 25 µM; TGI (DMS 114 small cell lung): > 100 µM; TGI (DMS 273 small cell lung): > 100 µM; GI50 (KM20L2 colon): 18.7 µM; TGI (KM20L2 colon): 37.5 µM; TGI (LXFL 529 NSCLC): > 100 µM; TGI (M19-MEL melanoma): > 100 µM; TGI (XF 498 CNS): 75.5 µM
CCOc1ccc(N/C(=C(/C(Cl)=C(/Cl)N2CCCCC2)[N+](=O)[O-])n2nnc3ccccc32)cc1	–	39.4	–	> 100	–
CC(C)=CC(Cc1ccccc1)S(=O)(=O)c1nc2ccccc2s1 (stereo not given)	62.7	31.5	37.1	35.8	–
O=C(O)CCSCc1ccccc1	> 100	> 100	> 100	> 100	–
NC(Cc1ccc(N(CCCl)CCCl)cc1)C(=O)NC(CCC(=O)O)C(=O)O (stereo not given)	> 100	> 100	> 100	> 100	–
